Experimental data as given in patent EP1007530B1, “6-O-SUBSTITUTED ERYTHROMYCIN COMPOUNDS AND METHOD FOR MAKING SAME” (ABBOTT LABORATORIES, priority 1996, dated 1997).

Tests used:
Assay in all cases: In vitro assay of antibacterial activity (agar dilution MIC)
Assay type in all cases: cell-based
Candida albicans CCH 442 = conditions: BHI agar, 35-37 °C, 20 to 24 hours, unit assumed
Protocol: (§1) Representative compounds of the present invention were assayed in vitro for antibacterial activity as follows: Twelve petri dishes containing successive aqueous dilutions of the test compound mixed with 10 mL of sterilized Brain Heart Infusion (BHI) agar (Difco 0418-01-5) were prepared. Each plate was inoculated with 1:100 (or 1:10 for slow-growing strains, such as Micrococcus and Streptococcus) dilutions of up to 32 different microorganisms, using a Steers replicator block. The inoculated plates were incubated at 35-37 °C for 20 to 24 hours, In addition, a control plate, using BHI agar containing no test compound, was prepared and incubated at the beginning and end of each test.
(§2) An additional plate containing a compound having known susceptibility patterns for the organisms being tested and belonging to the same antibiotic class as the test compound was also prepared and incubated as a further control, as well as to provide test-to-test comparability. Erythromycin A was used for this purpose.
(§3) After incubation, each plate was visually inspected. The minimum inhibitory concentration (MIC) was defined as the lowest concentration of drug yielding no growth, a slight haze, or sparsely isolated colonies on the inoculum spot as compared to the growth control. […]

[1] = tested on: Streptococcus pyogenes PIU 2548; conditions: BHI agar, 35-37 °C, 20 to 24 hours, unit assumed
Protocol: as §1, §2, §3

[2] = tested on: Streptococcus pyogenes EES61; conditions: BHI agar, 35-37 °C, 20 to 24 hours, unit assumed
Protocol: as §1, §2, §3

[3] = tested on: Staphylococcus aureus A-5278; conditions: BHI agar, 35-37 °C, 20 to 24 hours, unit assumed
Protocol: as §1, §2, §3

Escherichia coli H560 = conditions: BHI agar, 35-37 °C, 20 to 24 hours, unit assumed
Protocol: as §1, §2, §3

[4] = tested on: Nocarrdia asteroides ATCC 9970; conditions: BHI agar, 35-37 °C, 20 to 24 hours, unit assumed
Protocol: as §1, §2, §3

[5] = tested on: Staphylococcus aureus CMX 642A; conditions: BHI agar, 35-37 °C, 20 to 24 hours, unit assumed
Protocol: as §1, §2, §3

[6] = tested on: Staphylococcus epidermidis 3519; conditions: BHI agar, 35-37 °C, 20 to 24 hours, unit assumed
Protocol: as §1, §2, §3

[7] = tested on: Staphylococcus aureus NCTC10649M; conditions: BHI agar, 35-37 °C, 20 to 24 hours, unit assumed
Protocol: as §1, §2, §3

[8] = tested on: Staphylococcus aureus 1775; conditions: BHI agar, 35-37 °C, 20 to 24 hours, unit assumed
Protocol: as §1, §2, §3

Escherichia coli KNK 437 = conditions: BHI agar, 35-37 °C, 20 to 24 hours, unit assumed
Protocol: as §1, §2, §3

[9] = tested on: Micrococcus luteus ATCC 9341; conditions: BHI agar, 35-37 °C, 20 to 24 hours, unit assumed
Protocol: as §1, §2, §3

[10] = tested on: Staphylococcus aureus ATCC 6538P; conditions: BHI agar, 35-37 °C, 20 to 24 hours, unit assumed
Protocol: as §1, §2, §3

[11] = tested on: Enterococcus faecium ATCC 8043; conditions: BHI agar, 35-37 °C, 20 to 24 hours, unit assumed
Protocol: as §1, §2, §3

[12] = tested on: Pseudomonas aeruginosa K799/WT; conditions: BHI agar, 35-37 °C, 20 to 24 hours, unit assumed
Protocol: as §1, §2, §3

[13] = tested on: Streptococcus bovis A-5169; conditions: BHI agar, 35-37 °C, 20 to 24 hours, unit assumed
Protocol: as §1, §2, §3

[14] = tested on: Streptococcus agalactiae CMX 508; conditions: BHI agar, 35-37 °C, 20 to 24 hours, unit assumed
Protocol: as §1, §2, §3

[15] = tested on: Klebsiella pneumoniae ATCC 8045; conditions: BHI agar, 35-37 °C, 20 to 24 hours, unit assumed
Protocol: as §1, §2, §3

[16] = tested on: Providencia struartii CMX 640; conditions: BHI agar, 35-37 °C, 20 to 24 hours, unit assumed
Protocol: as §1, §2, §3

[17] = tested on: Pseudomonas aeruginosa DPHD-5263; conditions: BHI agar, 35-37 °C, 20 to 24 hours, in µg/mL (unit assumed)
Protocol: as §1, §2, §3

[18] = tested on: Pseudomonas aeruginosa BMH10; conditions: BHI agar, 35-37 °C, 20 to 24 hours, in µg/mL (unit assumed)
Protocol: as §1, §2, §3

[19] = tested on: Enterobacter aerogenes ATCC 13048; conditions: BHI agar, 35-37 °C, 20 to 24 hours, unit assumed
Protocol: as §1, §2, §3

[20] = tested on: Micrococcus luteus ATCC 4698; conditions: BHI agar, 35-37 °C, 20 to 24 hours, unit assumed
Protocol: as §1, §2, §3

[21] = tested on: Pseudomonas aeruginosa DPHD-2862; conditions: BHI agar, 35-37 °C, 20 to 24 hours, unit assumed
Protocol: as §1, §2, §3

[22] = tested on: Streptococcus pyogenes 930; conditions: BHI agar, 35-37 °C, 20 to 24 hours, unit assumed
Protocol: as §1, §2, §3

Escherichia coli JUHL = conditions: BHI agar, 35-37 °C, 20 to 24 hours, in µg/mL (unit assumed)
Protocol: as §1, §2, §3

Escherichia coli SS = conditions: BHI agar, 35-37 °C, 20 to 24 hours, unit assumed
Protocol: as §1, §2, §3

[23] = tested on: Staphylococcus aureus CMX 553; conditions: BHI agar, 35-37 °C, 20 to 24 hours, unit assumed
Protocol: as §1, §2, §3

[24] = tested on: Mycobacterium smegmatis ATCC 114; conditions: BHI agar, 35-37 °C, 20 to 24 hours, unit assumed
Protocol: as §1, §2, §3

[25] = tested on: Pseudomonas aeruginosa K799/61; conditions: BHI agar, 35-37 °C, 20 to 24 hours, unit assumed
Protocol: as §1, §2, §3

Escherichia coli DC-2 = conditions: BHI agar, 35-37 °C, 20 to 24 hours, unit assumed
Protocol: as §1, §2, §3

Pseudomonas capacia 2961 = conditions: BHI agar, 35-37 °C, 20 to 24 hours, in µg/mL (unit assumed)
Protocol: as §1, §2, §3

[26] = tested on: Pseudomonas aeruginosa 5007; conditions: BHI agar, 35-37 °C, 20 to 24 hours, unit assumed
Protocol: as §1, §2, §3

[27] = tested on: Actinetobacter calcoaceticus CMX 669; conditions: BHI agar, 35-37 °C, 20 to 24 hours, unit assumed
Protocol: as §1
(§4) An additional plate containing a compound having known susceptibility patterns for the organisms being tested and belonging to the same antibiotic class as the test compound was also prepared and incubated as a further control, as well as to provide test-to-test comparability.
as §3

[28] = tested on: Staphylococcus aureus A5177; conditions: BHI agar, 35-37 °C, 20 to 24 hours, unit assumed
Protocol: as §1, §4, §3

Compound	MIC (Candida albicans CCH 442) [µg/mL]	MIC [1] [µg/mL]	MIC [2] [µg/mL]	MIC [3] [µg/mL]	MIC (Escherichia coli H560) [µg/mL]	MIC [4] [µg/mL]	MIC [5] [µg/mL]	MIC [6] [µg/mL]	MIC [7] [µg/mL]	MIC [8] [µg/mL]	MIC (Escherichia coli KNK 437) [µg/mL]	MIC [9] [µg/mL]	MIC [10] [µg/mL]	MIC [11] [µg/mL]	MIC [12] [µg/mL]	MIC [13] [µg/mL]	MIC [14] [µg/mL]	MIC [15] [µg/mL]	MIC [16] [µg/mL]	MIC [17]	other results
CC[C@H]1OC(=O)[C@H](C)[C@@H](O[C@H]2C[C@@](C)(OC)[C@@H](O)[C@H](C)O2)[C@H](C)[C@@H](O[C@@H]2O[C@H](C)C[C@H](N(C)C)[C@H]2O)[C@](C)(OCC=O)C[C@@H](C)C(=O)[C@H](C)[C@@H](O)[C@]1(C)O [Example 8, Compound of Formula (X): X is =O, R is 2-oxoethyl]	> 100	25	0.1	> 100	50	0.39	0.78	0.78	0.78	> 100	> 100	0.1	0.78	0.39	> 100	0.2	0.39	> 100	> 100	> 100	MIC [18]: > 100; MIC [19]: > 100 µg/mL; MIC [20]: 1.56 µg/mL; MIC [21]: > 100 µg/mL; MIC [22]: > 100 µg/mL; MIC (Escherichia coli JUHL): 100; MIC (Escherichia coli SS): 1.56 µg/mL; MIC [23]: 0.78 µg/mL; MIC [24]: 6.2 µg/mL; MIC [25]: 3.1 µg/mL; MIC (Escherichia coli DC-2): > 100 µg/mL; MIC (Pseudomonas capacia 2961): > 100; MIC [26]: > 100 µg/mL; MIC [27]: 50 µg/mL; MIC [28]: 12.5 µg/mL
CC[C@H]1OC(=O)[C@H](C)[C@@H](O[C@H]2C[C@@](C)(OC)[C@@H](O)[C@H](C)O2)[C@H](C)[C@@H](O[C@@H]2O[C@H](C)C[C@H](N(C)C)[C@H]2O)[C@](C)(OCC(O)CN=[N+]=[N-])C[C@@H](C)C(=O)[C@H](C)[C@@H](O)[C@]1(C)O (some centres unmarked) [Example 11, Compound of Formula (X): X is =O, R is -CH2-CHOH-CH2-N3]	> 100	25	0.05	> 100	50	0.1	1.56	0.78	0.78	> 100	> 100	0.05	0.78	0.39	> 100	0.2	0.05	> 100	> 100	> 100	MIC [18]: > 100; MIC [19]: > 100 µg/mL; MIC [21]: > 100 µg/mL; MIC [22]: > 100 µg/mL; MIC (Escherichia coli JUHL): 100; MIC (Escherichia coli SS): 1.56 µg/mL; MIC [23]: 0.78 µg/mL; MIC [24]: 0.39 µg/mL; MIC (Escherichia coli DC-2): > 100 µg/mL; MIC (Pseudomonas capacia 2961): > 100; MIC [26]: > 100 µg/mL; MIC [27]: 25 µg/mL; MIC [28]: 6.2 µg/mL
